Experimental data published in ChEMBL document CHEMBL2406981, “Novel pyrazoline amidoxime and their 1,2,4-oxadiazole analogues: synthesis and pharmacological screening” (Bioorg Med Chem Lett, 2013).
Values after ≈ are worked out from the molar mass of the structure shown.

Legend:
[1] = test system: Escherichia coli; assay: Antimicrobial activity against Escherichia coli MTCC 724 at 50 ug/ml after 24 hrs by agar disc diffusion method; type: functional; settings: MTCC 724, 24 h, read-out: DIZ
[2] = Antioxidant activity assessed as reducing power of ferric ion at 10 ug/ml after 20 mins; type: functional; design: scale not given: the % may be the effect or the level left
[3] = Antiinflammatory activity against heat-induced albumin denaturation at […] preincubated for 15 mins before heat induction by UV-vis spectrophotometer analysis; type: functional
[4] = Antioxidant activity against ferric chloride-induced lipid peroxidation using egg lecithin at 100 ug/ml after 1 hr; type: functional
[5] = test system: Aspergillus flavus; assay: Antimicrobial activity against Aspergillus flavus MTCC 873; type: functional
[6] = test system: Radical scavenging activity; assay: Antioxidant activity assessed as DPPH free radical scavenging activity at 50 ug/ml after 20 mins; type: functional
[7] = test system: Escherichia coli; assay: Antimicrobial activity against Escherichia coli MTCC 724 at 100 ug/ml after 24 hrs by agar disc diffusion method; type: functional; settings: MTCC 724, 24 h, read-out: DIZ
[8] = Antioxidant activity against ferric chloride-induced lipid peroxidation using egg lecithin at 50 ug/ml after 1 hr; type: functional
[9] = test system: Radical scavenging activity; assay: Antioxidant activity assessed as DPPH free radical scavenging activity at 10 ug/ml after 20 mins; type: functional
[10] = Ratio of vitamin-E to compound for ferric chloride-induced lipid peroxidation; type: physicochemical
[11] = test system: Aspergillus flavus; assay: Antimicrobial activity against Aspergillus flavus MTCC 873 at 50 ug/ml after 24 hrs by agar disc diffusion method; type: functional; settings: MTCC 873, 24 h, read-out: DIZ
[12] = Antioxidant activity against ferric chloride-induced lipid peroxidation using egg lecithin at 10 ug/ml after 1 hr; type: functional
[13] = test system: Bacillus cereus; assay: Antimicrobial activity against Bacillus cereus MTCC 8372; type: functional
[14] = test system: Bacillus cereus; assay: Antimicrobial activity against Bacillus cereus MTCC 8372 at 50 ug/ml after 24 hrs by agar disc diffusion method; type: functional; settings: MTCC 8372, 24 h, read-out: DIZ
[15] = test system: Aspergillus niger; assay: Antimicrobial activity against Aspergillus niger MTCC 281; type: functional
[16] = test system: Klebsiella pneumoniae; assay: Antimicrobial activity against Klebsiella pneumoniae MTCC 3384 at 50 ug/ml after 24 hrs by agar disc diffusion method; type: functional; settings: MTCC 3384, 24 h, read-out: DIZ
[17] = test system: Klebsiella pneumoniae; assay: Antimicrobial activity against Klebsiella pneumoniae MTCC 3384; type: functional
[18] = test system: Klebsiella pneumoniae; assay: Antimicrobial activity against Klebsiella pneumoniae MTCC 3384 at 100 ug/ml after 24 hrs by agar disc diffusion method; type: functional; settings: MTCC 3384, 24 h, read-out: DIZ
[19] = test system: Aspergillus flavus; assay: Antimicrobial activity against Aspergillus flavus MTCC 873 at 100 ug/ml after 24 hrs by agar disc diffusion method; type: functional; settings: MTCC 873, 24 h, read-out: DIZ
[20] = test system: Staphylococcus aureus; assay: Antimicrobial activity against Staphylococcus aureus MTCC 96; type: functional
[21] = test system: Staphylococcus aureus; assay: Antimicrobial activity against Staphylococcus aureus MTCC 96 at 100 ug/ml after 24 hrs by agar disc diffusion method; type: functional; settings: MTCC 96, 24 h, read-out: DIZ
[22] = test system: Shigella flexneri; assay: Antimicrobial activity against Shigella flexneri MTCC 1457; type: functional
[23] = test system: Staphylococcus aureus; assay: Antimicrobial activity against Staphylococcus aureus MTCC 96 at 50 ug/ml after 24 hrs by agar disc diffusion method; type: functional; settings: MTCC 96, 24 h, read-out: DIZ
[24] = test system: Shigella flexneri; assay: Antimicrobial activity against Shigella flexneri MTCC 1457 at 100 ug/ml after 24 hrs by agar disc diffusion method; type: functional; settings: MTCC 1457, 24 h, read-out: DIZ
[25] = test system: Bacillus cereus; assay: Antimicrobial activity against Bacillus cereus MTCC 8372 at 100 ug/ml after 24 hrs by agar disc diffusion method; type: functional; settings: MTCC 8372, 24 h, read-out: DIZ
[26] = test system: Shigella flexneri; assay: Antimicrobial activity against Shigella flexneri MTCC 1457 at 50 ug/ml after 24 hrs by agar disc diffusion method; type: functional; settings: MTCC 1457, 24 h, read-out: DIZ
[27] = test system: Escherichia coli; assay: Antimicrobial activity against Escherichia coli MTCC 724; type: functional
[28] = test system: Radical scavenging activity; assay: Antioxidant activity assessed as DPPH free radical scavenging activity at 100 ug/ml after 20 mins; type: functional
[29] = test system: Aspergillus niger; assay: Antimicrobial activity against Aspergillus niger MTCC 281 at 50 ug/ml after 24 hrs by agar disc diffusion method; type: functional; settings: MTCC 281, 24 h, read-out: DIZ
[30] = test system: Aspergillus niger; assay: Antimicrobial activity against Aspergillus niger MTCC 281 at 100 ug/ml after 24 hrs by agar disc diffusion method; type: functional; settings: MTCC 281, 24 h, read-out: DIZ
[31] = Antioxidant activity assessed as reducing power of ferric ion at 100 ug/ml after 20 mins; type: functional; design: scale not given: the % may be the effect or the level left
[32] = Antioxidant activity assessed as reducing power of ferric ion at 50 ug/ml after 20 mins; type: functional; design: scale not given: the % may be the effect or the level left

SMILES: N/C(=N\O)C1CC(c2ccc(O)cc2)=NN1c1ccccc1 (configuration not stated)
- zone of inhibition at 50 µg/mL [1]: 10 mm
- Activity [2]: 12%
- inhibition [3]: 63.5%
- inhibition [4]: 20%
- MIC [5]: 35 µg/mL (≈ 118 µM)
- Activity [6]: 41%
- zone of inhibition at 100 µg/mL [7]: 16 mm
- inhibition [8]: 18%
- Activity [9]: 24%
- Ratio [10]: 3
- zone of inhibition at 50 µg/mL [11]: 5 mm
- inhibition [12]: 12%
- MIC [13]: 40 µg/mL (≈ 135 µM)
- zone of inhibition at 50 µg/mL [14]: 3 mm
- MIC [15]: 15 µg/mL (≈ 50.6 µM)
- zone of inhibition at 50 µg/mL [16]: 8 mm
- MIC [17]: 20 µg/mL (≈ 67.5 µM)
- zone of inhibition at 100 µg/mL [18]: 12 mm
- zone of inhibition at 100 µg/mL [19]: 12 mm
- MIC [20]: 50 µg/mL (≈ 169 µM)
- zone of inhibition at 100 µg/mL [21]: 8 mm
- MIC [22]: 10 µg/mL (≈ 33.7 µM)
- zone of inhibition at 50 µg/mL [23]: 2 mm
- zone of inhibition at 100 µg/mL [24]: 20 mm
- zone of inhibition at 100 µg/mL [25]: 3 mm
- zone of inhibition at 50 µg/mL [26]: 12 mm
- MIC [27]: 15 µg/mL (≈ 50.6 µM)
- Activity [28]: 76%
- zone of inhibition at 50 µg/mL [29]: 10 mm
- zone of inhibition at 100 µg/mL [30]: 14 mm
- Activity [31]: 79%
- Activity [32]: 34%
